Measured values from BindingDB's records for doi:10.1016/j.bmc.2006.06.050 (Enscmu, 2006).
Where a name gives a salt, the structure may show the parent alone.

Legend:
Test in all cases: Enzyme Inhibition Assay
[1] = molecular target: T1, Aminopeptidase N (Sus scrofa, UniProt P15145)
T1 sequence (P15145 whole entry): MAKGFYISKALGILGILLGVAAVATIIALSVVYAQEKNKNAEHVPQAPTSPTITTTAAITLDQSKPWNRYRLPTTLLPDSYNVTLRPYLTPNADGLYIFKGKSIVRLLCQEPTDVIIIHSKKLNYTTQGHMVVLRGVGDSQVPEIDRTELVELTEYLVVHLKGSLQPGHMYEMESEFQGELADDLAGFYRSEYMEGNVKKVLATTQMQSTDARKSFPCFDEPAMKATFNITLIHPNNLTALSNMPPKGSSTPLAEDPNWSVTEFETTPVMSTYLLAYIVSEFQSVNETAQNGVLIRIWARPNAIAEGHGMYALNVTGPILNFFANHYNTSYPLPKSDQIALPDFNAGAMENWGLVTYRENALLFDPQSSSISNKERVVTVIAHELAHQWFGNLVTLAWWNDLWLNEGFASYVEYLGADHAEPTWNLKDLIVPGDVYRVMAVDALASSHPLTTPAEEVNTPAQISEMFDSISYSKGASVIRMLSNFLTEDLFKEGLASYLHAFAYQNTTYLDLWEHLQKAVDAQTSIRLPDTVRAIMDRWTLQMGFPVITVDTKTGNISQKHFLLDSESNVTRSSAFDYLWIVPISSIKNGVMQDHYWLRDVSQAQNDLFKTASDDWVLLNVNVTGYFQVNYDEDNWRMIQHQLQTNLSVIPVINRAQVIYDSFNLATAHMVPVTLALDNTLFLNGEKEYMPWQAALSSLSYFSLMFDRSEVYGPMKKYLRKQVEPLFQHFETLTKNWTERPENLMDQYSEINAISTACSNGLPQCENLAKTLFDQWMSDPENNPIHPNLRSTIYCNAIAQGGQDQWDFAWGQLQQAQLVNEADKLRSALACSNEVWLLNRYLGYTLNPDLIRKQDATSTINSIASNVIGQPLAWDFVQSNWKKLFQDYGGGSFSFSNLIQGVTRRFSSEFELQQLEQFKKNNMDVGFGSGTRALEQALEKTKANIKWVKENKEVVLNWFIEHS

[2] = molecular target: Bacterial leucyl aminopeptidase (Vibrio proteolyticus, UniProt Q01693)
Chain of Bacterial leucyl aminopeptidase (Q01693 whole entry): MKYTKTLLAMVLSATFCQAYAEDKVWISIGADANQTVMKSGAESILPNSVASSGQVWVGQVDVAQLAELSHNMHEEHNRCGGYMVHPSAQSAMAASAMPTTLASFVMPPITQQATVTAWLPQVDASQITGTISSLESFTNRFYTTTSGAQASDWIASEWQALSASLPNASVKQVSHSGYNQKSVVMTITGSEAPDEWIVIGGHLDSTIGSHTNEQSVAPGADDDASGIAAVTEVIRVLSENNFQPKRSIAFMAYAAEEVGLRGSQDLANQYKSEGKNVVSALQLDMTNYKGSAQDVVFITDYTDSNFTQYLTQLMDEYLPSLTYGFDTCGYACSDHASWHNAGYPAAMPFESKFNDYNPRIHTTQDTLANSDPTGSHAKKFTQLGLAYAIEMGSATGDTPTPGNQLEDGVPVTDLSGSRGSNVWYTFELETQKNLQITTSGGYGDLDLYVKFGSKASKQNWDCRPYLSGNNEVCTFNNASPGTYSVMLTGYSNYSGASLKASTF

[3] = molecular target: T2, Leukotriene A-4 hydrolase (Homo sapiens, UniProt P09960)
T2 sequence (P09960 whole entry): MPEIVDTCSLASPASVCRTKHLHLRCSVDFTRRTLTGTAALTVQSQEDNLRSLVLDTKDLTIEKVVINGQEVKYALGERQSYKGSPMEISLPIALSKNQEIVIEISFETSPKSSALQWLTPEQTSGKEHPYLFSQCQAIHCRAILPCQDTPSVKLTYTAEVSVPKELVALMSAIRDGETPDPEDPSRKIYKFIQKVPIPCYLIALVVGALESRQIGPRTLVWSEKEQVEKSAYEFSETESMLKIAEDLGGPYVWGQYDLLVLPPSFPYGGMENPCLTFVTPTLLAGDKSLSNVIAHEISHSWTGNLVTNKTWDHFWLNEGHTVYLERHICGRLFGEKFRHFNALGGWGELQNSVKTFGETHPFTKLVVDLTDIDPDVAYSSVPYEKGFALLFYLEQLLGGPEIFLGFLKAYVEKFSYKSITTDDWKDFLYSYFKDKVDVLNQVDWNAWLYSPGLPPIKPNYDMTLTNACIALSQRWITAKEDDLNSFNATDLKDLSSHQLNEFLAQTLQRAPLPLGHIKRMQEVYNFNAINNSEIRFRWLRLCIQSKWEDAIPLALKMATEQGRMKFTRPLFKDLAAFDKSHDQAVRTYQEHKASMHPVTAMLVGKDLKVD

| IC50 [1] | IC50 [2] | IC50 [3] | IC50 ([2]; pH 8, 30 °C) | Ki [2] | Ki [1] | Ki [3] | Compound |
| --- | --- | --- | --- | --- | --- | --- | --- |
| – | – | > 1000 µM | – | 4 µM | 4 µM | – | NC1Cc2ccccc2CC1C(=O)NO (stereo not given) [3-amino-N-hydroxy-1,2,3,4-tetrahydronaphthalene-2-carboxamide hydrochloride] |
| – | – | > 1000 µM | 800 µM | – | 130 µM | – | CO/N=C1/Cc2ccccc2CC1N (stereo not given) [(3Z)-3-(methoxyimino)-1,2,3,4-tetrahydronaphthalen-2-amine hydrochloride] |
| – | – | 500 µM | 170 µM | – | 260 µM | – | NC1Cc2ccccc2C/C1=N/OCCc1ccccc1 (stereo not given) [(3Z)-3-[(2-phenylethoxy)imino]-1,2,3,4-tetrahydronaphthalen-2-amine hydrochloride] |
| – | – | – | 300 µM | – | 110 µM | 6 µM | NC1Cc2ccccc2C/C1=N/OCCCc1ccccc1 (stereo not given) [(3Z)-3-[(3-phenylpropoxy)imino]-1,2,3,4-tetrahydronaphthalen-2-amine hydrochloride] |
| 790 µM | – | > 1000 µM | 210 µM | – | – | – | NC1Cc2ccccc2C/C1=N/OCc1ccccc1 (stereo not given) [(3Z)-3-[(benzyloxy)imino]-1,2,3,4-tetrahydronaphthalen-2-amine hydrochloride] |
| – | – | – | 130 µM | – | 80 µM | 30 µM | NC1Cc2ccccc2C/C1=N/OCCCCCc1ccccc1 (stereo not given) [(3Z)-3-{[(5-phenylpentyl)oxy]imino}-1,2,3,4-tetrahydronaphthalen-2-amine hydrochloride] |

The next lines start with the compound.

| Compound | IC50 [1] | IC50 [2] | IC50 [3] | IC50 ([2]; pH 8, 30 °C) | Ki [2] | Ki [1] | Ki [3] |
| --- | --- | --- | --- | --- | --- | --- | --- |
| O=C1CCc2ccccc2C1 [1,2,3,4-tetrahydronaphthalen-2-one] | > 1000 µM | > 1000 µM | > 1000 µM | – | – | – | – |
| CC(=O)C1Cc2ccccc2CC1N (stereo not given) [1-(3-amino-1,2,3,4-tetrahydronaphthalen-2-yl)ethan-1-one hydrochloride] | > 1000 µM | – | 750 µM | 500 µM | – | – | – |
| NN1Cc2ccccc2CC1=O [2-amino-1,2,3,4-tetrahydroisoquinolin-3-one] | > 1000 µM | 740 µM | > 1000 µM | – | – | – | – |
| O=C1Cc2ccccc2CN1O [2-hydroxy-1,2,3,4-tetrahydroisoquinolin-3-one] | > 1000 µM | – | > 1000 µM | – | 4 µM | – | – |
| O=C1Cc2ccccc2CO1 [3,4-dihydro-1H-2-benzopyran-3-one] | > 1000 µM | > 1000 µM | > 1000 µM | – | – | – | – |
| O=C1Cc2ccccc2CS1 [3,4-dihydro-1H-2-benzothiopyran-3-one] | > 1000 µM | – | > 1000 µM | – | 4 µM | – | – |
| NC1Cc2ccccc2CC1=O (stereo not given) [3-amino-1,2,3,4-tetrahydronaphthalen-2-one hydrochloride] | – | – | > 1000 µM | 130 µM | – | – | – |
| NC1Cc2ccccc2CC1P(=O)(O)O (stereo not given) [3-amino-1,2,3,4-tetrahydronaphthalene-2-phosphonic acid hydrochloride] | 500 µM | 150 µM | > 1000 µM | – | – | – | – |
| NC1Cc2ccccc2NC1=O (stereo not given) [3-amino-1,2,3,4-tetrahydroquinolin-2-one hydrochloride] | > 1000 µM | – | > 1000 µM | – | 80 µM | – | – |
| NC1CCc2ccccc2C1 [(2S)-1,2,3,4-Tetrahydro-naphthalen-2-ylamine] | > 1000 µM | – | > 1000 µM | > 1000 µM | – | – | – |
| NC1Cc2ccccc2C/C1=N/OCCCCc1ccccc1 (stereo not given) [(3Z)-3-[(4-phenylbutoxy)imino]-1,2,3,4-tetrahydronaphthalen-2-amine hydrochloride] | – | – | – | 110 µM | – | 55 µM | 8 µM |
